Test results: patent US20040166137A1, “Hetero-substituted benzimidazole compounds and antiviral uses thereof” (priority 2002, published 2004)
pIC50: −log10 of the molar value.

Tests used:
rhinoviruses = conditions: cited from earlier work
RSV = assay: Antiviral assay (PRA): inhibition of RSV syncytial plaque formation on Hep2 cell monolayers; assay type: cell-based; conditions: human respiratory syncytial virus, HEp-2; Table 2; RSV-infected Hep2 cells, 48 hours, syncytia counted; read-out: PRA (IC50)
Description: The lower the observed level of fusion, the greater the antiviral activity of the compound was determined to be. Uninfected confluent monolayers (seeded at 2.2×10^4 cells/well) of Hep2 cells were grown in microtiter wells (96-well plates) in EMEM (Eagle Minimum Essential Medium w/o L-glutamine [Bio Whittaker Cat. […] Bio Whittaker Cat. No. 14-[…]), antibiotics (penicillin/streptomycin; Bio Whittaker Cat. […] The plates were incubated for 24 hours and used for antiviral assays and cytotoxicity assays. To prepare Hep2 cells for addition to uninfected cells, cultures of […] infected Hep2 cells were washed with DPBS (Dulbecco's Phosphate Buffered Saline w/o calcium or magnesium; Bio Whittaker Cat. […] Gibco Life Technologies Cat. No. 15040-017). The cells were spun for 10 minutes and resuspended in 3% FBS. Cell counts were performed using a hemacytometer. Persistent cells were added to the uninfected Hep2 cells. The antiviral assay was conducted by first removing all medium from the wells containing uninfected Hep2 cells, adding 100 μl complete EMEM, then adding hetero-substituted benzimidazole compounds (eight 3-fold dilutions with 20 μM concentration as the highest final concentration) in 50 μl complete EMEM. Approximately 50 […] plaque forming units (PFU) of RSV in 50 μl was added per well and the plates were incubated in a CO2 incubator at 37° C. for 48 hours. Each plate contained uninfected control wells and infected untreated control wells for calculation of % inhibition (EC50) for each concentration. After incubation, cells in control wells were checked for fusion centers, medium was removed from the wells followed by addition to each well of either Crystal Violet stain or XTT. With respect to Crystal Violet, approximately 50μl 0.25% Crystal Violet stain in methanol was added to each well. The wells were rinsed immediately, to remove excess stain, and were allowed to dry. The number of syncytia per well were then counted, using a dissecting microscope. For antiviral assays at 48 hours post infection, cells in control wells were checked for syncytial plaques. Medium was removed from the wells followed by addition of approximately 50 Al Crystal Violet stain (0.25% Crystal Violet, 0.25% Giemsa dissolved in 10% formaldehyde, 70% methanol, and 20% H2O). The wells were incubated at room temperature for 5 minutes, rinsed with H2O to remove excess stain, and allowed to dry. The number of syncytia per well were counted using a dissecting microscope. The 50% inhibitory concentration (EC50) for each compound was calculated from the dose response curve. The compounds listed in Tables 1-2 have been screened for inhibitory activity against RSV.

[1] = XTT cytotoxicity assay on uninfected Hep2 cells; assay type: cell-based; conditions: human
Description: Uninfected confluent monolayers (seeded at 2.2×10^4 cells/well) of Hep2 cells were grown in microtiter wells (96-well plates) in EMEM (Eagle Minimum Essential Medium w/o L-glutamine [Bio Whittaker Cat. No. 12-125F] with 3% fetal bovine serum (FBS; which had been heat inactivated for 30 minutes at 56° C.; Bio Whittaker Cat. No. 14-501F), antibiotics (penicillin/streptomycin; Bio Whittaker Cat. No. 17-602E) added at 1%, and glutamine added at 1% (complete EMEM). The plates were incubated for 24 hours and used for antiviral assays and cytotoxicity assays.
Cytotoxicity assays were conducted by first removing all medium from the well containing uninfected Hep2 cells, adding 100 μl complete EMEM, and then adding hetero-substituted benzimidazole compounds (eight 3-fold dilutions with 100 μM concentration as the highest final concentration). Complete EMEM (50 μl) was added to each well instead of virus and the plates were incubated in a CO2 incubator at 37° C. for 48 hours.
At 48 hours, the cytotoxicity assays were developed by adding to each well 50 μl of XTT (1 mg/ml in PBS) containing 0.01-0.02 mM of the electron coupling agent phenazine methosulfate (PMS). The plates were incubated for 2-4 hours at 37° C. and then read in a 96-well plate reader at 450 nm. Plotting the % average OD of treated wells compared to the cell control vs. compound concentration generated dose response curves. CC50 (50% inhibitory cytotoxic concentration) values for each compound were then calculated from these curves. […]

COc1ccc2nc[nH]c2c1 [5-methoxybenzimidazole]
inhibition of the cytopathic effect (rhinoviruses): 100%

Oc1cc2c(cc1O)CN(Cc1nc3cccnc3n1Cc1nc3ccccc3[nH]1)CC2 [compound 15, 2-[3-(1H-Benzoimidazol-2-ylmethyl)-3H-imidazo[4,5-b]pyridin-2-ylmethyl]-1,2,3,4-tetrahydro-isoquinoline-6,7-diol]
pIC50 (RSV): 7.89 | CC50 at 48 h [1]: ≥ 100 µM

c1ccc2[nH]c(Cn3c(CN4CCNCC4)nc4cccnc43)nc2c1 [compound 16, 3-(1H-Benzoimidazol-2-ylmethyl)-2-piperazin-1-ylmethyl-3H-imidazo[4,5-b]pyridine]
pIC50 (RSV): 6.92 | CC50 at 48 h [1]: ≥ 100 µM

O=C(Cc1ccccc1)N1CCN(Cc2nc3cccnc3n2Cc2nc3ccccc3[nH]2)CC1 [compound 17, 1-{4-[3-(1H-Benzoimidazol-2-ylmethyl)-3H-imidazo[4,5-b]pyridin-2-ylmethyl]-piperazin-1-yl}-2-phenyl-ethanone]
pIC50 (RSV): 7.70 | CC50 at 48 h [1]: ≥ 100 µM

CC(=O)N1CCN(Cc2nc3cccnc3n2Cc2nc3ccccc3[nH]2)CC1 [compound 18, 1-{4-[3-(1H-Benzoimidazol-2-ylmethyl)-3H-imidazo[4,5-b]pyridin-2-ylmethyl]-piperazin-1-yl}-ethanone]
pIC50 (RSV): 8.40 | CC50 at 48 h [1]: ≥ 100 µM

O=C(Nc1ccc2c(c1)OCCCO2)N1CCN(Cc2nc3cccnc3n2Cc2nc3ccccc3[nH]2)CC1 [compound 20, 4-[3-(1H-Benzoimidazol-2-ylmethyl)-3H-imidazo[4,5-b]pyridin-2-ylmethyl]-piperazine-1-carboxylic acid (3,4-dihydro-2H-benzo[b][1,4]dioxepin-7-yl)-amide]
pIC50 (RSV): 8.30 | CC50 at 48 h [1]: ≥ 100 µM

O=C(c1ccco1)N1CCN(Cc2nc3cccnc3n2Cc2nc3ccccc3[nH]2)CC1 [compound 21, {4-[3-(1H-Benzoimidazol-2-ylmethyl)-3H-imidazo[4,5-b]pyridin-2-ylmethyl]-piperazin-1-yl}-furan-2-yl-methanone]
pIC50 (RSV): 7.89 | CC50 at 48 h [1]: ≥ 100 µM

OCC1CCCN1Cc1nc2cccnc2n1Cc1nc2ccccc2[nH]1 (stereo not drawn) [compound 22, {1-[3-(1H-Benzoimidazol-2-ylmethyl)-3H-imidazo[4,5-b]pyridin-2-ylmethyl]-pyrrolidin-2-yl}-methanol]
pIC50 (RSV): 8.70 | CC50 at 48 h [1]: ≥ 100 µM

OCCC1CCCCN1Cc1nc2cccnc2n1Cc1nc2ccccc2[nH]1 (stereo not drawn) [compound 23, 2-{1-[3-(1H-Benzoimidazol-2-ylmethyl)-3H-imidazo[4,5-b]pyridin-2-ylmethyl]-piperidin-2-yl}-ethanol]
pIC50 (RSV): 8.00 | CC50 at 48 h [1]: ≥ 100 µM

c1ccc2c(c1)CN(Cc1nc3cccnc3n1Cc1nc3ccccc3[nH]1)C2 [compound 27, 3-(1H-Benzoimidazol-2-ylmethyl)-2-(1,3-dihydro-isoindol-2-ylmethyl)-3H-imidazo[4,5-b]pyridine]
pIC50 (RSV): 7.70 | CC50 at 48 h [1]: ≥ 100 µM

Cc1cc(S(=O)(=O)N2CCN(Cc3nc4cccnc4n3Cc3nc4ccccc4[nH]3)CC2)c(C)s1 [compound 28, 3-(1H-Benzoimidazol-2-ylmethyl)-2-[4-(2,5-dimethyl-thiophene-3-sulfonyl)-piperazin-1-ylmethyl]-3H-imidazo[4,5-b]pyridine]
pIC50 (RSV): 7.80 | CC50 at 48 h [1]: ≥ 100 µM

Cc1nn(C)c(Cl)c1S(=O)(=O)N1CCN(Cc2nc3cccnc3n2Cc2nc3ccccc3[nH]2)CC1 [compound 29, 3-(1H-Benzoimidazol-2-ylmethyl)-2-[4-(5-chloro-1,3-dimethyl-1H-pyrazole-4-sulfonyl)-piperazin-1-ylmethyl]-3H-imidazo[4,5-b]pyridine]
pIC50 (RSV): 6.70 | CC50 at 48 h [1]: ≥ 100 µM

O=S(=O)(c1ccc(F)cc1F)N1CCN(Cc2nc3cccnc3n2Cc2nc3ccccc3[nH]2)CC1 [compound 30, 3-(1H-Benzoimidazol-2-ylmethyl)-2-[4-(2,4-difluoro-benzenesulfonyl)-piperazin-1-ylmethyl]-3H-imidazo[4,5-b]pyridine]
pIC50 (RSV): 8.00 | CC50 at 48 h [1]: ≥ 100 µM

O=S(=O)(c1ccsc1)N1CCN(Cc2nc3cccnc3n2Cc2nc3ccccc3[nH]2)CC1 [compound 31, 3-(1H-Benzoimidazol-2-ylmethyl)-2-[4-(thiophene-3-sulfonyl)-piperazin-1-ylmethyl]-3H-imidazo[4,5-b]pyridine]
pIC50 (RSV): 8.00 | CC50 at 48 h [1]: ≥ 100 µM
